Experimental findings from US11590105B2, “Intrathecal administration of levetiracetam” (Sintetica S.A., priority 2019, dated 2023) are described below.

This data set is described as follows: Osmolality of various concentrations of levetiracetam in water. Format: physicochemical. An excerpt:
Sodium chloride and other halide salts that affect the tonicity of the solution are preferably omitted from the formulations and unnecessary because levetiracetam itself yields an isotonic (or slightly above isotonic) formulation in the formulations of the present invention. The following table gives the osmolality of various concentrations of levetiracetam in water: […]

As to `CC[C@@H](C(N)=O)N1CCCC1=O` [Levetiracetam, (−)-(S)-α-ethyl-2-oxo-1-pyrrolidine acetamide], the Osmolality runs as follows: (levetiracetam conc. 2.75 mg/ml in water) 16 mOsm/kg; (levetiracetam conc. 45 mg/ml in water) 262 mOsm/kg; (levetiracetam conc. 50 mg/ml in water) 292 mOsm/kg; (levetiracetam conc. 60 mg/ml in water) 348 mOsm/kg; (levetiracetam conc. 65 mg/ml in water) 377 mOsm/kg.
